18 molecules from patent US10774083B2, “Heterocyclic amide compound” (TAKEDA PHARMACEUTICAL COMPANY LIMITED, priority 2016, dated 2020) can be followed below.

Structures are written as SMILES.

The first experiment concerns the target T1, human PRS protein (His-Avi-hEPRS (998-1512)) (Homo sapiens, UniProt P07814).
T1 construct: to construct His-Avi-hEPRS (998-1512) expression plasmid; His tag (N); Avi tag (N); TEV cleavage site (ENLYFQG, then S; inferred from the forward primer hEPRS-TEV-NheF) (N); made in house; host or cells: E. coli BL21(DE3)
T1 sequence (P07814 998-1512 limits assumed): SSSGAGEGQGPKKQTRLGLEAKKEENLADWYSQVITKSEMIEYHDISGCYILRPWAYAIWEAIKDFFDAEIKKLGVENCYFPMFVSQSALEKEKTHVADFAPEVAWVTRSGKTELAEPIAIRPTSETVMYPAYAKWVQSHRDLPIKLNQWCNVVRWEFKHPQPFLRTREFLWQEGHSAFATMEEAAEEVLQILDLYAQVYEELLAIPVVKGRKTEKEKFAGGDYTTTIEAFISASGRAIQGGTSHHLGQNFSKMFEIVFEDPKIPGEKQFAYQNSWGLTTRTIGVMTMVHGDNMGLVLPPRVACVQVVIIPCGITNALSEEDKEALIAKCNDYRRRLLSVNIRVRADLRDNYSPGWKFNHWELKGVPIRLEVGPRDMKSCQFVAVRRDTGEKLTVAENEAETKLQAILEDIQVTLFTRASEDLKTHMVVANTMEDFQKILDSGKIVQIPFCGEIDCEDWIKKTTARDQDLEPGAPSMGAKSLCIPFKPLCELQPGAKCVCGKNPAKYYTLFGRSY
Description: PRS inhibitory activity ([32P]pyrophosphate exchange enzyme assay). It counts as biochemical. To be noted: 300 nM test compound; 0.3 µM. As for the experimental part:
The PRS inhibitory activity of the compounds of the present invention was evaluated by the following method.
An expression plasmid of Catalytic Domain of human EPRS was obtained by PCR using human skeletal muscle cDNA Library (Takara Bio Inc.) as a template and 2 kinds of Primers 5′-[…]-3′ (hEPRS-TEV-NheF) (SEQ ID NO: 1) and 5′-[…]-3′ (hEPRS-St-Not-R) (SEQ ID NO: 2). PCR was performed using PrimeStar GXL DNA Polymerase (Takara Bio Inc.) and included (1) 98° C., 1 min, (2) 35 cycles of 98° C., 10 sec, 65° C., 10 sec, 72° C., 1 min, and (3) reaction at 72° C., 1 min. This was cleaved with Nhe I and Not I (Takara Bio Inc.) and inserted using Ligation High (TOYOBO CO., LTD.) into the Nhe I/Not I site of pET21a (Novagen) with His-Avitag inserted thereinto. This was introduced into ECOS JM109 (NIPPON GENE CO., LTD.) to construct His-Avi-hEPRS (998-1512) expression plasmid.
Recombinant human PRS protein was prepared by transforming the His-Avi-hEPRS (998-1512) expression plasmid prepared above into ECOS Competent E. coli BL21(DE3) (NIPPON GENE CO., LTD.). Escherichia coli obtained by transformation was inoculated into 300 mL of LB medium (1% peptone, 0.5% yeast extract, 0.5% sodium chloride, 0.01% ampicillin) and cultured at 30° C. for 16 hr. The obtained culture medium was transferred into a jar culture tank charged with 6 L of the main fermentation medium (0.3% potassium dihydrogen phosphate, 0.6% disodium hydrogen phosphate, 0.1% ammonium chloride, 0.05% sodium chloride, 0.024% magnesium sulfate, 0.02% NEWPOL LB-625, 1.5% sorbitol, 1.5% casamino acid, 0.5% yeast extract, 0.01% ampicillin) and culturing was started at 37° C., quantity of airflow 5 L/min, stirring rotating speed 400 rpm. At the time point when the turbidity of the culture medium reached about 550 Klett units, the culture temperature was lowered to 16° C., isopropyl-β-D-thiogalactopyranoside (IPTG) was added to the final concentration 0.1 mM, and culturing was performed for another 16 hr to induce expression of human PRS. After completion of culturing, the culture medium was centrifuged at 5,000 rpm for 10 min. The obtained human PRS expressing Escherichia coli was suspended in a buffer containing 50 mM Tris-HCl (pH 8.0), 150 mM NaCl, 1 mM DTT, 5 U/ml Benzonase, 20 mM Imidazole and sonicated using Sonifier (BRANSON). The homogenate was centrifuged (33,000×G, 60 min, Beckman Coulter), the obtained supernatant was subjected to adsorption by passage through Ni-NTA Superflow (QIAGEN) column equilibrated in advance with 50 mM Tris-HCl (pH 8.0), 300 mM NaCl, 1 mM DTT, and elution was performed with a buffer containing 50 mM Tris-HCl (pH 8.0), 300 mM NaCl, 1 mM DTT, 250 mM Imidazole. Furthermore, gel filtration was performed using Superdex200 pg column equilibrated in advance with a buffer containing 50 mM Tris-HCl (pH 8.0), 150 mM NaCl, 1 mM DTT, 10% glycerol to give purified human PRS protein. The protein concentration was measured using BCA Protein Assay Kit (PIERCE) and BSA as the standard.
A test compound was dissolved in 5 μL of an assay buffer (50 mM Tris-HCl (pH 7.5), 20 mM KCl, 1 mM DTT, 0.01% Tween 20) and incubated for 60 min with 5 μL of 40 nM human PRS protein dissolved in the assay buffer containing 40 mM MgCl2. An enzyme reaction of the human PRS protein was started by adding 10 μL of a substrate solution containing 300 μM ATP, 160 μM L-Proline, 400 μM pyrophosphate, [^32P]pyrophosphate (PerkinElmer) prepared to 1 MBq/mL. After incubation at room temperature for 30 min, the reaction was discontinued by adding 50 μL of discontinuation/washing solution (1M HCl, 200 mM sodium pyrophosphate) to the reaction mixture. The reaction solution was transferred to a filter plate (Merck Millipore, Billerica, Mass.) previously added with 200 μL of charcoal solution (0.5% HCl solution containing 10% charcoal (w/v)). […]
Regarding `Cn1cc(-c2cc(F)cc(CNC(=O)c3ncnc4nc(C5COCCO5)[nH]c34)c2)cn1` (stereo not drawn) [Example 34, 8-(1,4-dioxan-2-yl)-N-(3-fluoro-5-(1-methyl-1H-pyrazol-4-yl)benzyl)-7H-purine-6-carboxamide], the “inhibitory rate (%) of PRS” value came to 101%.

Staying with this experiment, now noted: 300 nM test compound; read-out: inhibitory rate (%) of PRS.
In the case of `Cn1cc(-c2cc(F)cc(CNC(=O)c3nc(Cl)nc4nc(C5CCCC5)[nH]c34)c2)cn1` [Example 12, 2-chloro-8-cyclopentyl-N-(3-fluoro-5-(1-methyl-1H-pyrazol-4-yl)benzyl)-7H-purine-6-carboxamide], the inhibition at 0.3 µM turned out to be 77%. As to `Cc1cc(N2CCN(C(C)C)C2=O)cc(C(=O)NCc2cc(F)cc(-c3cnn(C)c3)c2)n1` [Example 226, N-(3-fluoro-5-(1-methyl-1H-pyrazol-4-yl)benzyl)-4-(3-isopropyl-2-oxoimidazolidin-1-yl)-6-methylpyridine-2-carboxamide], the inhibition at 0.3 µM was determined as 91%. Same read-out and setting: the value for `COc1c(F)cc(-c2cnn(C)c2)cc1CNC(=O)c1ncnc2nc(C3CCCC3)n(C)c12` [Example 6, 8-cyclopentyl-N-(3-fluoro-2-methoxy-5-(1-methyl-1H-pyrazol-4-yl)benzyl)-7-methyl-7H-purine-6-carboxamide] was 79%; that for `Cc1cc(N2CCC(C3CC3)C2=O)cc(C(=O)NCc2cc(F)cc(-c3cnn(C)c3)c2)n1` (stereo not drawn) [Example 234, 4-(3-cyclopropyl-2-oxopyrrolidin-1-yl)-N-(3-fluoro-5-(1-methyl-1H-pyrazol-4-yl)benzyl)-6-methylpyridine-2-carboxamide] was 87%; that for `Cn1cc(-c2cc(F)cc(CNC(=O)c3nccc4nc(C5CCCC5)n(CC5CC5)c34)c2)cn1` [Example 114, 2-cyclopentyl-3-(cyclopropylmethyl)-N-(3-fluoro-5-(1-methyl-1H-pyrazol-4-yl)benzyl)-3H-imidazo[4,5-c]pyridine-4-carboxamide] was 101%. On the same count and under the same terms, the value for `Cc1cc(N2OCC(C)(C)C2=O)cc(C(=O)NCc2cc(F)cc(-c3cnn(C)c3)c2)n1` [Example 179, 4-(4,4-dimethyl-3-oxo-1,2-oxazolidin-2-yl)-N-(3-fluoro-5-(1-methyl-1H-pyrazol-4-yl)benzyl)-6-methylpyridine-2-carboxamide] was 93%. For the molecule `Cc1cc(N2CC[C@@](C#N)(C3CC3)C2=O)cc(C(=O)NCc2cc(-c3cnn(C)c3)cc(C(F)(F)F)c2)n1` [Example 218, 4-((3S)-3-cyano-3-cyclopropyl-2-oxopyrrolidin-1-yl)-6-methyl-N-(3-(1-methyl-1H-pyrazol-4-yl)-5-(trifluoromethyl)benzyl)pyridine-2-carboxamide], the inhibition at 0.3 µM came out at 83%. As to `Cn1cc(-c2cc(F)cc(CNC(=O)c3nccc4nc(C5CCCC5)n(C5CC5)c34)c2)cn1` [Example 108, 2-cyclopentyl-3-cyclopropyl-N-(3-fluoro-5-(1-methyl-1H-pyrazol-4-yl)benzyl)-3H-imidazo[4,5-c]pyridine-4-carboxamide], the inhibition at 0.3 µM is 102%. As to `COc1cc(N2CC[C@@](C#N)(C3CC3)C2=O)cc(C(=O)NCc2cc(F)cc(-c3cnn(C)c3)c2)n1` [Example 224, 4-((3S)-3-cyano-3-cyclopropyl-2-oxopyrrolidin-1-yl)-N-(3-fluoro-5-(1-methyl-1H-pyrazol-4-yl)benzyl)-6-methoxypyridine-2-carboxamide], the inhibition at 0.3 µM is 74%. Take `Cc1nc(C(=O)NCc2cc(F)cc(-c3cnn(C)c3)c2)c2[nH]c(C3CCCC3)nc2n1` [Example 13, 8-cyclopentyl-N-(3-fluoro-5-(1-methyl-1H-pyrazol-4-yl)benzyl)-2-methyl-7H-purine-6-carboxamide]: the inhibition at 0.3 µM was found to be 86%. Regarding `CC(C)c1nc2ccnc(C(=O)NCc3cc(F)cc(-c4cnn(C)c4)c3)c2[nH]1` [Example 99, N-(3-fluoro-5-(1-methyl-1H-pyrazol-4-yl)benzyl)-2-isopropyl-3H-imidazo[4,5-c]pyridine-4-carboxamide], the inhibition at 0.3 µM amounted to 96%.

In the case of `Cn1cc(-c2cc(F)cc(CNC(=O)c3cc(N4CC[C@@](C#N)(C5CC5)C4=O)ccn3)c2)ccc1=O` [Example 150, 4-((3S)-3-cyano-3-cyclopropyl-2-oxopyrrolidin-1-yl)-N-(3-fluoro-5-(1-methyl-6-oxo-1,6-dihydropyridin-3-yl)benzyl)pyridine-2-carboxamide], the inhibition at 0.3 µM stood at 87%. Turning to `Cn1cc(-c2cc(F)cc(CNC(=O)c3cc(N4CC[C@@](C#N)(C5CC5)C4=O)cc(C4CC4)n3)c2)cn1` [Example 225, 4-((3S)-3-cyano-3-cyclopropyl-2-oxopyrrolidin-1-yl)-6-cyclopropyl-N-(3-fluoro-5-(1-methyl-1H-pyrazol-4-yl)benzyl)pyridine-2-carboxamide], the inhibition at 0.3 µM was found to be 66%.

As to `Cn1cc(-c2cc(F)cc(CNC(=O)c3nccc4nc(C5CCCC5)n(Cc5ccccc5)c34)c2)cn1` [Example 123, 3-benzyl-2-cyclopentyl-N-(3-fluoro-5-(1-methyl-1H-pyrazol-4-yl)benzyl)-3H-imidazo[4,5-c]pyridine-4-carboxamide], the inhibition at 0.3 µM was 69%.

As for `Cn1cc(-c2csc(CNC(=O)c3cc(N4CC[C@@](C#N)(C5CC5)C4=O)ccn3)c2)cn1` [Example 157, 4-((3S)-3-cyano-3-cyclopropyl-2-oxopyrrolidin-1-yl)-N-((4-(1-methyl-1H-pyrazol-4-yl)-2-thienyl)methyl)pyridine-2-carboxamide], the inhibition at 0.3 µM amounted to 85%.

Take `Cn1cc(-c2cc(CNC(=O)c3nccc4nc(C5CCCC5)n(C)c34)ccn2)cn1` [Example 136, 2-cyclopentyl-3-methyl-N-((2-(1-methyl-1H-pyrazol-4-yl)pyridin-4-yl)methyl)-3H-imidazo[4,5-c]pyridine-4-carboxamide]: the inhibition at 0.3 µM was determined as 77%. In the case of `CC1(c2nc3ccnc(C(=O)NCc4ccccc4Cl)c3[nH]2)CCCC1` [Example 87, N-(2-chlorobenzyl)-2-(1-methylcyclopentyl)-3H-imidazo[4,5-c]pyridine-4-carboxamide], the inhibition at 0.3 µM was 74%.
